Source: patent US20160289280A1, “Fusion protein of recombinant ganoderma immunoregulatory protein and human serum albumin, preparation method thereof, and application thereof” (priority 2013, published 2016)
Marks after values point to notes of the source that are not given here.

Key:
platelets = assay: treatment of mouse thrombocytopenia caused by cyclophosphamide, platelet count; assay type: in vivo
Method: Experimental medicine: preparing a 19.25 μg·kg^−1 and a 9.625 μg·kg^−1 dosage groups of the recombinant ganoderma immunoregulatory protein (rLZ-8) with sterile injection water, and 0.2 ml per mouse; and preparing a 19.25 μg·kg^−1 and a 9.625 μg·kg^−1 dosage groups (judging from the LZ-8) of the fusion protein rLZ-8-HSA of the recombinant ganoderma immunoregulatory protein.
Positive control medicine: thrombopoietin (THPO) from Shenyang 3SBio Inc., with a dosage of 770 μg·kg^−1/d and 0.2 ml per mouse.
Chemotherapy medicine: cyclophosphamide (Cy) from Jiangsu Hengrui Medicine Co., Ltd, whose batch number is 12112121, 200 mg/bottle; preparing into 100 mg·kg^−1, 0.2 ml per mouse with sterile injection water.
Platelet dilution: urea: 1.3 g; sodium citrate: 0.5 g; formaldehyde: 0.1 ml; adding distilled water to 100 ml for mixing, then filtering for further utilization.
Experimental method: dividing experimental animals into 5 groups, wherein each group comprises 10 mice with 5 males and 5 females; except for a normal control group (injected with normal saline having an equal volume), abdominally injecting the cyclophosphamide to the mice with a dosage of 100 mg·kg^−1, 0.2 ml per mouse per day, and lasting for three days; when a platelet quantity decreased to below 300×10^9/L, subcutaneously injecting the rLZ-8, the fusion protein rLZ-8-HAS (19.25 μg·kg^−1, 9.625 μg·kg^−1, 0.2 ml·per mouse per day) and the positive medicine (THPO 770 μg·kg^−1, 0.2 ml·per mouse per day) according to the above groups with corresponding dosages, and injecting the normal saline having the equal volume to the normal control group and a CP group; respectively sampling mouse tail vein blood 3 d, 7 d and 14 d after treatment, counting platelets with high power lens, wherein results thereof are listed in table 7.

mouse spleen cells = assay: promotion of mouse spleen cell proliferation, WST-1 method; assay type: cell-based; conditions: for OD450, promotion of cell proliferation: 24 h, x ± s, n = 9; for promotion of spleen cell proliferation compared with rLZ-8: same protein concentration
Method: Testing effects of the fusion proteins on mouse spleen cell proliferation by a WST-1 method, which illustrates strength of biological activity, wherein according to the present invention, BALB/c female mice are used, whose weight is controlled at 20-22 g; executing the mice by stretching necks thereof, taking out spleens under a sterile condition, and putting into a plate with 5 ml DMEM comprising 10% calf serum; cracking the spleens with tweezers, filtering tissue suspension with gauze for removing tissue blocks, and preparing cell suspension of spleen cells; adding 100 μl the tissue suspension into 900 μl 2% glacial acetic acid for counting with a microscope; adjusting a cell concentration to 5×10^6/ml with DMEM comprising 2% calf serum; respectively preparing the fusion proteins and the rLZ-8 with same molar concentration gradient, wherein there are 3 gradient concentrations, each concentration occupies 9 wells with 100 μl per well; adding tissue suspension with a concentration of 5×10^6/ml with 100 μl per well; shaking for evenly mixing, and then putting into a 37° C., 5% CO2 incubation device to incubate for 24 h; after incubation, adding WST-1 with 20 μl per well; putting into the 37° C., 5% CO2 incubation device to incubate for 3 h, then testing OD450 (with a BIO-RAD); wherein results are listed in table 1.

[1] = tested on: mouse transplanted tumor S180; assay: subcutaneous inhibition of mouse transplanted tumor S180; assay type: in vivo; conditions: positive control 20 mg·kg^−1, abdominally injected
Method: In vivo experiment: experimental material: mice weighing 18-22 g from Laboratory Animal Center of Jilin University; Ehrlich ascites tumor cell strains are provided by a lab of the inventor; cytoxan (CTX) is from Jiangsu Hengrui Medicine Co., Ltd, whose batch number is 06101921; 5180 ascites tumor and soild tumor experimental groups respectively comprises a normal control group, a negative control group, a positive control group, an rLZ-8 low-dosage group (0.25 mg·kg^−1), an rLZ-8 middle-dosage group (0.5 mg·kg^−1), an rLZ-8 high-dosage group (1 mg·kg^−1), an rLZ-8-HSA low-dosage group (0.25 mg·kg^−1), an rLZ-8-HSA middle-dosage group (0.5 mg·kg^−1), and an rLZ-8-HSA high-dosage group (1 mg·kg^−1), wherein dosages of the rLZ-8-HSA groups are judged from LZ-8 dosage, wherein each group comprises 10 mice.
tumor inhibition rate (%)=(average tumor weight of control groups−average tumor weight of experimental groups)/average tumor weight of control groups×100%.

[2] = tested on: mouse melanoma cells B16-F10; assay: mouse B16-F10 transplanted tumor model, in situ tumor weight; assay type: in vivo; conditions: 2.5 mg/kg, 5 days, again after 3 weeks, 28 day cycle
Method: In vivo experiment: firstly, establishing a mouse tumor mould, wherein mouse melanoma cells B16-F10 is cultured with the DMEM comprising 10% fetal calf serum at 37° C. in a CO2 incubation device; slowly subcutaneously injecting 200 μl B16-F10 cell suspension (comprising 1×10^7 cells) with a 1 ml injector at mouse dorsal-ventral skin, so as to establish a mouse transplanted tumor mould.

leukocytes = assay: treatment of rat models with leucopenia caused by cyclophosphamide, leukocyte count; assay type: in vivo; conditions: positive medicine 13.5 μg/ml, 0.1 ml per rat
Excerpt: Utilizing Wistar rats in the experiments, wherein 18 rats weighing about 100 g are utilized. […] The experiment has an rLZ-8 low-dosage group, an rLZ-8 middle-dosage group, an rLZ-8 high-dosage group, an rLZ-8-HSA low-dosage group, an rLZ-8-HSA middle-dosage group, an rLZ-8-HSA high-dosage group, and a positive medicine control group (utilizing the […]®). […] On the third day, the blood is sampled from the tail vein, and the leukocytes are counted by a cytoanalyzer. After successful modeling, the rats of each the group are respectively treated with the rLZ-8, the three kinds of the fusion proteins, or the positive medicine (the […]®) with the corresponding dosage, and the equal sterile saline is given to the rats of the normal control and a CP group. The blood is sampled from the tail vein on the first, third and seventh treatment days, and the leukocytes are counted by the cytoanalyzer. Medicine efficacy is analyzed according to a number difference of the leukocyte between before and after the treatment.

[3] = 770 μg·kg^−1 subcutaneously per day

Molecule: THPO: thrombopoietin (THPO) from Shenyang 3SBio Inc., positive control medicine [reference compound]
- platelets after (platelets; 770 μg·kg^−1 group, after cyclophosphamide, before treatment): 284 ± 0.19 *10^9/L
- platelets before (platelets; 770 μg·kg^−1 group, baseline before cyclophosphamide): 851 ± 0.34 *10^9/L
- platelets 3rd day (platelets; [3]): 390 ± 0.38 *10^9/L
- platelets 7th day (platelets; [3]): 420 ± 0.32 *10^9/L
- platelets 14th day (platelets; [3]): 689 ± 0.65 *10^9/L

Molecule: rLZ-8-Fc4: fusion protein of ganoderma immunoregulatory protein (LZ-8) and human IgG4Fc fragment, SEQ ID NO. 3
- OD450, promotion of cell proliferation (mouse spleen cells; protein 5.0 × 10^−9 mol/L): 0.452 ± 0.43
- OD450, promotion of cell proliferation (mouse spleen cells; protein 10.0 × 10^−9 mol/L): 0.840 ± 0.27
- OD450, promotion of cell proliferation (mouse spleen cells; protein 15.0 × 10^−9 mol/L): 0.929 ± 0.21
- promotion of spleen cell proliferation compared with rLZ-8 (mouse spleen cells): significantly decreased

Molecule: O=P1(N(CCCl)CCCl)NCCCO1 (stereo not drawn) [CTX, cyclophosphamide, reference compound]
- Inhibition rate [1]: 64.3%
- tumor weight [1]: 0.36 ± 0.02 g

Molecule: CN(C)/N=N/c1[nH]cnc1C(N)=O [dacarbazine, reference compound]
- tumor inhibition rate [2]: 62.57 ± 0.27%
- tumor weight [2]: 0.52 ± 0.12 g

B1: rLZ-8-Fc1: fusion protein of ganoderma immunoregulatory protein (LZ-8) and human IgG1Fc fragment, SEQ ID NO. 2 (protein)
chain: RPSDTALIFRLAWDVKKLSFDYTPNWGRGNPNNFIDTVTFPKVLTDKAYTYRVAVSGRNLGVKPSYAVESDGSGKVNFLEYNSGYGIADTNTIGVFVVDPDTNNDFIIAGWNGGGGSSEPKSCDKTHTCPPCPAPELLGGPSVFLFPPKPKDTLMISRTPEVTCVVVDVSHEDPEVKFNWYVDGVEVHNAKTKPREEGYNSTYRVVSVLTVLHGDWLNGKEYKCKVSNKALPAPIEKTISKAKGGPREPGVYTLPPSREEMTKNGVSLTCLVKGFYPSDIAVEWESNGGPENNYKTTPPVLDSDGSFFLYSKLTVDKSRWGGGNVFSCSVMHEALHNHYTGKSLSLSPGK
modifications: rLZ-8-Fc1 sequence
- OD450, promotion of cell proliferation (mouse spleen cells; protein 5.0 × 10^−9 mol/L): 0.543 ± 0.26
- OD450, promotion of cell proliferation (mouse spleen cells; protein 10.0 × 10^−9 mol/L): 0.937 ± 0.29
- OD450, promotion of cell proliferation (mouse spleen cells; protein 15.0 × 10^−9 mol/L): 1.114 ± 0.31
- promotion of spleen cell proliferation compared with rLZ-8 (mouse spleen cells): significantly decreased

B2: GenLei ® Scimax ®: recombinant human granulocyte colony-stimulating factor injection (rhG-CSF), positive medicine (protein, UniProt P09919 31-207, looked up)
Granulocyte …: TPLGPASSLPQSFLLKCLEQVRKIQGDGAALQEKLVSECATYKLCHPEELVLLGHSLGIPWAPLSSCPSQALQLAGCLSQLHSGLFLYQGLLQALEGISPELGPTLDTLQLDVADFATTIWQQMEELGMAPALQPTQGAMPAFASAFQRRAGGVLVASHLQSFLEVSYRVLRHLAQP
- leukocyte number on the first treatment day (leukocytes): 6.4e+09 L⁻¹
- leukocyte number on the seventh treatment day (leukocytes): 1.117e+10 L⁻¹
- leukocyte number on the third treatment day (leukocytes): 1.183e+10 L⁻¹
- leukocyte number before (leukocytes; baseline after CP modeling, before treatment): 4.55e+09 L⁻¹
